Experimental data from patent US10000496B2, “Compositions useful for treating disorders related to kit and PDGFR” (BLUEPRINT MEDICINES CORPORATION, priority 2015, dated 2018).
pIC50: −log10 of the molar value.

Assays:
D816V Kit = target: T1, D816V Kit (Homo sapiens, UniProt P10721, D816V); assay: Kit D816V assay at Km (Caliper electrophoretic mobility shift); conditions: D816V Kit 0.5 nM, 15 uM ATP (Km), 1 uM Srctide, 25 C, 90 minutes; read-out: Biochemical Activity D816V IC50
T1 construct: purchased Carna Bioscience 08-156
T1 sequence (P10721 26-976 D816V): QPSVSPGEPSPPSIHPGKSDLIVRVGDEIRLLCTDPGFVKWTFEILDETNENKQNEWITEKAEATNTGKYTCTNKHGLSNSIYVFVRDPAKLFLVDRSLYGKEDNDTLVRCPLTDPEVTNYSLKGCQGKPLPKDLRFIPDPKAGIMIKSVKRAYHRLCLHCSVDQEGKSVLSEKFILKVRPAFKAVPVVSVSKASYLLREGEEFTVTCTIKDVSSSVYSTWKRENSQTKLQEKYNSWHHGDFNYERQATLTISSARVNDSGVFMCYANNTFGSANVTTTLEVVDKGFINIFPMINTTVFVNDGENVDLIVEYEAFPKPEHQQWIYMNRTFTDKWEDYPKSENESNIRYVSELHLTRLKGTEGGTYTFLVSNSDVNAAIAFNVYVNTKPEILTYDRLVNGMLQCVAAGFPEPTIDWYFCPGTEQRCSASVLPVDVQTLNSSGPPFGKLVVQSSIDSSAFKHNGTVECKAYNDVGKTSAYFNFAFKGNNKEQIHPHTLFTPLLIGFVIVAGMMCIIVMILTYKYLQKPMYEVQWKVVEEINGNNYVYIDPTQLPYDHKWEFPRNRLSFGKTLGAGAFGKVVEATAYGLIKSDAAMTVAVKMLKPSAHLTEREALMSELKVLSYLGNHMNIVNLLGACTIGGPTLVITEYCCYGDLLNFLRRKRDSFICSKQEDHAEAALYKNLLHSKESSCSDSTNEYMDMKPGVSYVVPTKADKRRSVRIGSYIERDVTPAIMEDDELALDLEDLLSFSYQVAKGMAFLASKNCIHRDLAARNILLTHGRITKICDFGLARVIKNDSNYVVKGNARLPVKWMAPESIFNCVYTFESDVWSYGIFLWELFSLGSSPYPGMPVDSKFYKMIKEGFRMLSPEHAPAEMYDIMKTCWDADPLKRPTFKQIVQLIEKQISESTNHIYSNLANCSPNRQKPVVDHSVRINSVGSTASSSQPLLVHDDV
Method: In order to assess the activity of chemical compounds against the relevant kinase of interest, the Caliper LifeSciences electrophoretic mobility shift technology platform is used. Fluorescently labeled substrate peptide is incubated in the presence of kinase and ATP so that a […] proportion of the peptide is phosphorylated. At the end of the reaction, the mix of phosphorylated (product) and non-phosphorylated (substrate) peptides are passed through the microfluidic system of the Caliper EZ Reader 2, under an applied potential difference. The presence of the phosphate group on the product peptide provides a difference in mass and charge between those of the substrate peptide, resulting in a separation of the substrate and product pools in the sample. As the pools pass a LEDS within the instrument, these pools are detected and resolved as separate peaks. The ratio between these peaks therefore reflects the activity of the chemical matter at that concentration in that well, under those conditions.
Kit D816V assay at Km: In each well of a 384-well plate, 0.04 ng/ul (0.5 nM) of D816V Kit (Carna Bioscience 08-156) was incubated in a total of 12.5 ul of buffer (100 mM HEPES pH 7.5, 0.015% Brij 35, 10 mM MgCl2, 1 mM DTT) with 1 uM Srctide (5-FAM-GEEPLYWSFPAKKK-NH2) and 15 uM ATP at 25 C for 90 minutes in the presence or absence of a dosed concentration series of compound (1% DMSO final concentration). The reaction was stopped by the addition of 70 ul of Stop buffer (100 mM HEPES pH 7.5, 0.015% Brij 35, 35 mM EDTA and 0.2% of Coating Reagent 3 (Caliper Lifesciences)). The plate was then read on a Caliper EZReader 2 (protocol settings:—1.9 psi, upstream voltage—700, downstream voltage—3000, post sample sip 35s). Data was normalized to 0% and 100% inhibition controls and the IC50 or EC50 calculated using a 4-parameter fit using GraphPad Prism.

[1] = target: T2, Kit D816V in HMC1.2 cells (Homo sapiens, UniProt P10721, D816V/V560G); assay: HMC1.2 autophosphorylation assay (Kit autophosphorylation at tyrosine 719, AlphaLISA); assay type: cell-based; conditions: HMC1.2 mast cell leukemia cells (Kit V560G and D816V), phospho-Y719 c-Kit, 90 minutes; read-out: Cellular Activity IC50
T2 construct: endogenous in cells; host or cells: HMC1.2
T2 sequence (P10721 26-976 V560G/D816V): as the sequence (P10721 26-976 D816V) above, with V535G counted along it
Method: 10,000 HMC1.2 cells were incubated in 22 ul culture media (phenol-red free IMDM, no serum) in each well of a 384-well plate and serum starved overnight in a tissue culture incubator (5% CO2, 37° C.). A 10-point dose concentration series of compound (25 uM-95.4 pM) were then added to the cells in a volume of 3.1 ul to each well (0.25% DMSO final concentration). After 90 minutes, 6 ul of 5× AlphaLISA Lysis Buffer (Perkin Elmer) supplemented with a protease and phosphatase inhibitor cocktail (Cell Signaling Technologies) was added to each well and shaken at 450 rpm for 15 minutes at 4° C. 10 ul of phospho-Y719 c-Kit and total c-Kit antibodies (15 nM final concentration, Cell Signaling Technologies) and 50 ug/ml AlphaLISA rabbit acceptor beads (Perkin Elmer) were added to each well and shaken at 300 rpm at room temperature for 2 hours. 10 ul of 100 ug/ml streptavidin donor beads (Perkin Elmer) were added to each well, blocked from light with aluminum adhesive and shaken at 300 rpm at room temperature for 2 hours. Fluorescence signal was obtained on Envision (Perkin Elmer) by AlphaScreen 384 well HTS protocol. Data was normalized to 0% and 100% inhibition controls and the IC50 was calculated using Four Parameter Logistic IC50 curve fitting.
This cell line contains Kit mutated at positions V560G and D816V resulting in constitutive activation of the kinase. The following compounds were tested in an assay to measure direct inhibition of Kit D816V kinase activity by assaying Kit autophosphorylation at tyrosine 719 on the Kit protein.

| SMILES | pIC50 (D816V Kit) | pIC50 [1] |
| --- | --- | --- |
| Cc1ccc(CC(=O)Nc2ccc(-c3ncnn4cc(-c5cnn(C)c5)cc34)cc2)cc1 [Compound 8] | 8.00 to 9.00 | 7.00 to 8.00 |
| CN(C)C(=O)c1ccc(-c2cc3c(-c4ccc(NS(C)(=O)=O)cc4)ncnn3c2)cc1 [Compound 14] | 8.00 to 9.00 | 6.00 to 7.00 |
| Cn1cc(-c2cc3c(-c4ccc(NC(=O)Cc5c[nH]c6ccccc56)cc4)ncnn3c2)cn1 [Compound 23] | 8.00 to 9.00 | 7.00 to 8.00 |
| Cn1cc(-c2cc3c(-c4ccc(NC(=O)C(C)(C)c5ccc(Cl)cc5)cc4)ncnn3c2)cn1 [Compound 41, 2-(4-chlorophenyl)-2-methyl-N-(4-(6-(1-methyl-1H-pyrazol-4-yl)pyrrolo[1,2-f][1,2,4]triazin-4-yl)phenyl)propanamide] | > 9.00 | 7.00 to 8.00 |
| Cn1cc(-c2cc3c(-c4ccc(NC(=O)[C@@](C)(O)c5ccc(Cl)cc5)cc4)ncnn3c2)cn1 [Compound 49, 2-(4-chlorophenyl)-2-hydroxy-N-(4-(6-(1-methyl-1H-pyrazol-4-yl)pyrrolo[1,2-f][1,2,4]triazin-4-yl)phenyl)propanamide] | 8.00 to 9.00 | > 8.00 |
| COC(C(=O)Nc1ccc(-c2ncnn3cc(-c4cnn(C)c4)cc23)cc1)c1ccc(Cl)cc1 (centres unmarked) [Compound 52] | 8.00 to 9.00 | 7.00 to 8.00 |
| Cc1ccc(S(=O)(=O)Nc2ccc(-c3ncnn4cc(-c5cnn(C)c5)cc34)cc2)cc1 [Compound 22] | 8.00 to 9.00 | 7.00 to 8.00 |
| Cn1cc(-c2cc3c(-c4ccc(NC(=O)[C@@H](O)c5ccc(Cl)cc5)cc4)ncnn3c2)cn1 [Compound 34, 2-(4-chlorophenyl)-2-hydroxy-N-(4-(6-(1-methyl-1H-pyrazol-4-yl)pyrrolo[1,2-f][1,2,4]triazin-4-yl)phenyl)acetamide] | 8.00 to 9.00 | 7.00 to 8.00 |
| Cn1cc(-c2cc3c(-c4ccc(NC(=O)Nc5ccc(Cl)cc5)cc4)ncnn3c2)cn1 [Compound 21] | < 7.00 |  |
| COC(C(=O)Nc1ccc(-c2ncnn3cc(-c4cnn(C)c4)cc23)cc1)c1ccccc1 (centres unmarked) [Compound 15] | 8.00 to 9.00 |  |
| Cn1cc(-c2cc3c(-c4ccc(NC(=O)c5ccc(C#N)cc5)cc4)ncnn3c2)cn1 [Compound 7] | 7.00 to 8.00 |  |

Results, then the compound that gave them:

| pIC50 (D816V Kit) | pIC50 [1] | SMILES |
| --- | --- | --- |
| 8.00 to 9.00 | 6.00 to 7.00 | Cn1cc(-c2cc3c(-c4ccc(NS(=O)(=O)c5ccc(F)cc5)cc4)ncnn3c2)cn1 [Compound 24] |
| 8.00 to 9.00 | > 8.00 | Cn1cc(-c2cc3c(-c4ccc(NC(=O)Cc5ccc(Cl)cc5Cl)cc4)ncnn3c2)cn1 [Compound 54] |
| 7.00 to 8.00 | 5.00 to 6.00 | Cn1cc(-c2cc3c(-c4ccc(NS(=O)(=O)c5ccc(Cl)cc5)c(F)c4)ncnn3c2)cn1 [Compound 57] |
| 7.00 to 8.00 | 5.00 to 6.00 | Cn1cc(-c2cc3c(-c4ccc(NS(=O)(=O)c5ccccc5Cl)cc4)ncnn3c2)cn1 [Compound 38] |
| 7.00 to 8.00 | < 5.00 | CC(C)S(=O)(=O)Nc1ccc(-c2ncnn3cc(-c4cnn(C)c4)cc23)cc1 [Compound 2] |
| 8.00 to 9.00 | 6.00 to 7.00 | COc1ccc(S(=O)(=O)Nc2ccc(-c3ncnn4cc(-c5cnn(C)c5)cc34)cc2)cc1 [Compound 35] |
| < 7.00 | 5.00 to 6.00 | O=C(c1ccc(-c2cc3c(-c4ccc(NS(=O)(=O)c5ccc(Cl)cc5)cc4)ncnn3c2)cc1)N1CCC1 [Compound 66] |
| 8.00 to 9.00 | 7.00 to 8.00 | Cn1cc(-c2cc3c(-c4ccc(NC(=O)Cc5ccccc5)cc4)ncnn3c2)cn1 [Compound 3] |
| 8.00 to 9.00 | 5.00 to 6.00 | Cn1cc(-c2cc3c(-c4ccc(NS(C)(=O)=O)cc4)ncnn3c2)cn1 [Compound 1] |
| 8.00 to 9.00 | 6.00 to 7.00 | Cn1cc(-c2cc3c(-c4ccc(NC(=O)Cc5ccccc5Cl)cc4)ncnn3c2)cn1 [Compound 19] |
| > 9.00 |  | Cn1cc(-c2cc3c(-c4ccc(NC(=O)C(O)c5ccccc5)cc4)ncnn3c2)cn1 (centres unmarked) [Compound 10] |
| < 7.00 |  | Cn1cc(-c2cc3c(-c4ccc(NC(=O)c5ccc(Cl)cc5)cc4)ncnn3c2)cn1 [Compound 12] |
